# Assay results published in the Biogen ADME set (Fang et al. 2023).
# Details: for aqueous solubility: pH 6.8
MDR1-MDCK efflux ratio,"intrinsic clearance, human liver microsomes [mL/min/kg]","intrinsic clearance, rat liver microsomes [mL/min/kg]",aqueous solubility [µg/mL],Structure (SMILES)
0.474,780,2050,–,COC(=O)c1cccc2c1CCCN2C(=O)c1ccccc1
2.42,675,1950,46.9,COc1ccc(CNc2c(-c3ccc(OC)c(OC)c3)nc3cnccn23)cc1
8,126,827,10,NC(=O)c1ccccc1NC(=O)CN1CCCC(c2nc3ccccc3o2)C1 (stereo not given)
4.88,–,–,0.28,Cc1ccc(-c2nc3ccccc3[nH]2)cc1NS(=O)(=O)c1ccc(Cl)cc1
0.73,89.2,2390,–,Cc1nc(-c2ccccc2)c(C(=O)Nc2ccc(Cl)c(Cl)c2)s1
0.904,–,–,0.25,COc1ccc(-c2nnc3nn(C)c(=O)n3c2-c2ccc(OC)cc2)cc1
–,19.1,296,1.02,CCN1CCN(c2ccc(NC(=O)c3ncoc3-c3ccc4ccccc4c3)cc2)CC1
1.35,≤ 4.74,≤ 10.7,40.8,Cc1ccc(C(=O)N(C)Cc2c(C)noc2C)cn1
8.2,≤ 4.74,107,–,CC(=O)NC[C@H]1C[C@]2(C)[C@@H](CCCC[C@]2(C)O)N1CC1(O)CCCC1
4.95,≤ 4.74,94.4,45.4,Cc1cc(C)n(-c2ccc(C(=O)NCc3cccnc3)cc2)n1
0.697,18.7,483,–,CN(C)c1cncc(-c2ccc(C(=O)NC(C)(C)C)cc2)n1
1.37,≤ 4.74,24.3,–,CN(C)C(=O)C(C)(C)NC(=O)OC(C)(C)C
43.4,≤ 4.74,16.2,69.5,Cc1nccc(-c2cccc(NCC(=O)NCC(=O)N3CCCC3)c2)n1
2.14,311,1490,5.15,CCOC(=O)c1c(C)[nH]c(CN(Cc2ccccc2)C(=O)c2ccccc2Cl)c1C
35,48.7,186,53.5,CCc1nnc(Nc2cccc(C3CCCN(CC(=O)N4CCCC4)C3)n2)s1 (stereo not given)
3.55,38,500,–,COc1cccc(C)c1C(=O)N(C)CCCn1cccn1

# More lines, now with the values behind:
Structure (SMILES),MDR1-MDCK efflux ratio,"intrinsic clearance, human liver microsomes [mL/min/kg]","intrinsic clearance, rat liver microsomes [mL/min/kg]",aqueous solubility [µg/mL]
CC(C)(C(=O)NCc1ccccn1)c1ccccc1,0.736,≤ 4.74,138,77.6
Cc1nc(CC(=O)NCc2ccccc2)cs1,0.79,≤ 4.74,39,26
N[C@H](Cc1c[nH]c2ccccc12)C(=O)N/N=C/c1ccc2nccnc2c1,13.4,17.2,55.8,40.3
O=C(NCCN1CCC(c2ccccc2)CC1)c1ccc2ncsc2c1,1.31,15.2,108,44
COc1cccc(-c2ocnc2C(=O)Nc2ccc(-c3ccc(C)o3)cc2)c1,–,–,–,0.4
C=CCNC1=C2C[C@@H](C)C[C@@H](OC)[C@@H](O)[C@@H](C)/C=C(\C)[C@@H](OC(N)=O)[C@@H](OC)/C=C\C=C(/C)C(=O)NC(=CC1=O)C2=O,–,489,1010,–
CCOCCNC(=O)c1cccc(-c2cc(F)ccc2OC)c1,0.525,130,819,–
O=C1CCCN1c1ccc(CN2CCC(c3noc4cc(F)ccc34)CC2)cc1,0.963,26.7,109,58.6
O=C(NCc1cccc2c1OCCCO2)c1cscn1,–,7.67,82.9,–
CC(C)(C)c1cc(C(=O)CSc2nncn2-c2ccccc2)cc(C(C)(C)C)c1O,–,15.9,46.6,–
Cc1cccc2cnc(C3CCN(C(=O)CCc4ccno4)CC3)cc12,–,31.2,729,–
Cc1cc(CN(C)C(=O)C(=O)Nc2ccc(F)c(C)c2)no1,–,13.7,270,–
Cc1ccc(C(=O)Nc2nc3ccccc3[nH]2)cc1,–,–,–,0.85
Cc1ccc(C)c(S(=O)(=O)N2CCCN(CCn3cccn3)CC2)c1,1.14,207,2010,30.5
Cc1cccc(NC(=O)CN(C)Cc2nc3ccc(Cl)cc3c(=O)[nH]2)c1C,12.5,101,1270,–
